Assay results taken from patent US10544415B2, “Methods for producing enteroendocrine cells that make and secrete insulin” (The Trustees Of Columbia University In The City Of New York, priority 2010, dated 2020).

What was measured:
KATP channel = KATP channel (Mus musculus, UniProt B2RUS7); conditions: NKO gut segments, 1 hr; 10 nM glibenclamide or 0.5 mM diazoxide
Protocol: Adult intestine was stained in medium containing 0.12 mM Dithizone (DTZ) (10) and selected 5-inches-long DTZ+ fragments from NKO mice or anatomically matched control mice. The intestines were cut open and incubated in glucose-free DMEM supplemented with 10% FBS and 20 mM glucose for 30 min. At the end of the incubation, insulin and C peptide 2 content was measured in the medium by ELISA (Millipore). Collagenase-purified pancreatic islets from 14-week-old WT mice served as controls (5).
To determine whether Ggut Ins^+ cells are functionally competent to secrete insulin, we performed ex vivo assays of insulin secretion in response to glucose and KATP channel modulators, using DTZ staining to select gut segments enriched in Ins^+ cells from NKO mice and anatomically matched segments from control mice.
Adult intestine were strained in medium containing 0.12 mM Dithizone (DTZ) (Tuttle et al Nat Med, 2001) and selected 5-inches-long DTZ+ fragments from NKO mice or anatomically matched fragments from control WT mice. […] At the end of the incubation, we measured insulin and C-peptide 2 content in the medium by ELISA (Millipore). Collagenase-purified pancreatic islets from 14-week-old WT mice served as controls (Kitamura et al., MCB 2009). Experiments were carried out using adult intestines (n=4).

[1] = Insulin bioassay: acid-ethanol tissue extracts injected into newborn mice, blood glucose; assay type: in vivo, mouse
Protocol: Insulin bioassay. Acid-ethanol extracts were prepared from neonatal (P3) gut, liver, and pancreas (35). Tissue extract or recombinant human insulin (Humulin R, Eli Lilly) (10 U/ml in acid-ethanol) were mixed with either insulin neutralizing antibody (Thermo Scientific) or isotype-matched mouse IgG1 (Ebiosciences) for subcutaneous injections in 50 microliters volume. Glucose was measured immediately prior to and 5 minutes after injections.
To examine whether intestinal insulin secreted by Gut Ins+ cells is bioactive, acid-ethanol extracts from NKO gut were prepared, extracts were also prepared from gut, pancreas and liver of WT mice, and injected into newborn mice. Extracts from newborn NKO intestine lowered blood glucose by about 20%, similar to pancreatic extracts from age-matched control mice or recombinant human insulin (FIG. 3C). In contrast, extracts from control intestines or liver had no effect. The ability of NKO gut extracts (reflecting the presence of Gut Ins+ cells) to lower blood glucose was preempted by the addition of an insulin-neutralizing antibody, as was pancreatic extracts from control mice and recombinant insulin.

Chain of KATP channel (B2RUS7 1-1588): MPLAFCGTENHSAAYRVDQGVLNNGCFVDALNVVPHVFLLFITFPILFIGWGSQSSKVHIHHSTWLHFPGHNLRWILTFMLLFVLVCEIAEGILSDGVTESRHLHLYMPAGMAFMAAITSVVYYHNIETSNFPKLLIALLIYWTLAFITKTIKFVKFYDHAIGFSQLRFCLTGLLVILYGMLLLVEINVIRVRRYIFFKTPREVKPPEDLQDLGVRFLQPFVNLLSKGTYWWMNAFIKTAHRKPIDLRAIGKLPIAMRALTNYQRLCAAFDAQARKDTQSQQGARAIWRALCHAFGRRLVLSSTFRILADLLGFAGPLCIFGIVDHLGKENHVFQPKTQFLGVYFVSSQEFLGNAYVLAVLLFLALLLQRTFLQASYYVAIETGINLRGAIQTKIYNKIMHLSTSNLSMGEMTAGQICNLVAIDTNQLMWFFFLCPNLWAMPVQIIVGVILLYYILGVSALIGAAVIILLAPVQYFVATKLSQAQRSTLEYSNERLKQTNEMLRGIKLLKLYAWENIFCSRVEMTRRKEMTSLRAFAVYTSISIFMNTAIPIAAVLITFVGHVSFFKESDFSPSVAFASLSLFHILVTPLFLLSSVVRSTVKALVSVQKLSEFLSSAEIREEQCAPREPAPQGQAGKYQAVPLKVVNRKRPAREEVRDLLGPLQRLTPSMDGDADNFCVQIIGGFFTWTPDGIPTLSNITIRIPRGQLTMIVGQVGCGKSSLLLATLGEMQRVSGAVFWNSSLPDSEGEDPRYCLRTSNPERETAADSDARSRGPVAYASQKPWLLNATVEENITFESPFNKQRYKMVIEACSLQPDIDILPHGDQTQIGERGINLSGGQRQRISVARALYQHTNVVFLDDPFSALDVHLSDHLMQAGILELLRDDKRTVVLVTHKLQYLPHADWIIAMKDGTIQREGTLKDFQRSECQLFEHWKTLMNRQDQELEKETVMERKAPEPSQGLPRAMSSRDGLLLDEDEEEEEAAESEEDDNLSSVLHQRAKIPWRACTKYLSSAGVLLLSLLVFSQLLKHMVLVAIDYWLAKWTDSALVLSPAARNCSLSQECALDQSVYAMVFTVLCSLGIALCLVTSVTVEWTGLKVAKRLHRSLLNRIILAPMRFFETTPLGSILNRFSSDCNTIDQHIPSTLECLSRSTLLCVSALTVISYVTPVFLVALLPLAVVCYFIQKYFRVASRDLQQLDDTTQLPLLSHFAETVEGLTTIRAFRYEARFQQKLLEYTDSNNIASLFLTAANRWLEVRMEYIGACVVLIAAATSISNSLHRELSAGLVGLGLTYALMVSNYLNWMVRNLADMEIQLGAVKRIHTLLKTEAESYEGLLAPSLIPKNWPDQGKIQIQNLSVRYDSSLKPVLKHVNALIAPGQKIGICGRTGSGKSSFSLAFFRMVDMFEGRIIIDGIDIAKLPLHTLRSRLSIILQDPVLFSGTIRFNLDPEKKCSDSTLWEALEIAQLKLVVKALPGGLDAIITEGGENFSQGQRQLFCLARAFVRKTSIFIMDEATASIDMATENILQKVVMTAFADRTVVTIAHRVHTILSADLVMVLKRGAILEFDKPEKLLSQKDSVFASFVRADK
Chain of KATP channel (Q61743 whole entry partner): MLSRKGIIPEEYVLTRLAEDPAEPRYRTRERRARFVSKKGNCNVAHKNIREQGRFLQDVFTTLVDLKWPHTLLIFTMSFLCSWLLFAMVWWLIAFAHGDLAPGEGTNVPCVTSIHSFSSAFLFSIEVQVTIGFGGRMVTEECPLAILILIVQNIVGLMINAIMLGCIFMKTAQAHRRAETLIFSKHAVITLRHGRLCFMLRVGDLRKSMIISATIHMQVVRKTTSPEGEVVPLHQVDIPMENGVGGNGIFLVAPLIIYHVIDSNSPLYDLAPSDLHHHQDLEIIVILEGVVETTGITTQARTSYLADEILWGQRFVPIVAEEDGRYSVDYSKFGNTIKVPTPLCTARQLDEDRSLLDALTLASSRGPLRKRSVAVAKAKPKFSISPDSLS

effect on glucose-induced insulin release from NKO gut (KATP channel)	Compound	lowering of blood glucose (in words) ([1]; injected into newborn mice, compared with NKO intestine extract)	ability to lower blood glucose after addition of insulin-neutralizing antibody ([1]; sample mixed with insulin-neutralizing antibody)
blunted	CC1=NS(=O)(=O)c2cc(Cl)ccc2N1 [diazoxide]	–	–
–	recombinant human insulin: recombinant human insulin (Humulin R, Eli Lilly), 10 U/ml in acid-ethanol	similar	preempted
